Experimental data as given in patent US7491409B1, “Encapsulation of bioactive complexes in liposomes” (Transave, Inc., priority 1999, dated 2009).

System: pZeoLacZ plasmid DNA
Protocol: Each dialysis device was rotated on a 12 inch motorized wheel overnight (approximately 20 hours). The DNA-containing chamber was then withdrawn with repeated pipetting to mix the sample, and it was placed in a 250 μl volume cuvette. The absorbance at 400 nm was used to monitor turbidity against the buffer background.

NCCCNCCCCNCCCN [spermine]
total spermine concentration sufficient to condense the DNA (in the presence of the amount of N-C12-DOPE used): 0.85 mM
spermine concentration sufficient to condense the plasmid DNA (initial 250 μl emulsion, without N-C12-DOPE): approximately 0.6 mM
